The test system of test [1] is neuropathic pain-like behaviors after chronic constriction injury (CCI). In words: Behavioral pharmacology model: chronic constriction injury of the sciatic nerve (CCI), paw withdrawal threshold, von Frey filaments. Format: in vivo. Particulars: rat, oral gavage, mechanical endpoint, 4 hrs. The method, then:
(§1) Behavioral Pharmacology Model: Compounds were administered by oral gavage to rats that had undergone one of two nerve injury surgeries: spared nerve injury to injure two of the three peripheral branches of the sciatic nerve or chronic constriction injury of the sciatic nerve. Paw withdrawal thresholds to mechanical stimulation using calibrated von Frey filaments were used as measurement of neuropathic pain-like behaviors.
(§2) Compounds were tested in standard behavioral pharmacology models for pain in rats as described in the literature (see, e.g., Latremoliere et al., Neuron, 86:1393-1406 (2015); Tegeder et al., Nature Medicine, 12:1269-1277 (2006)). Compounds were administered by oral gavage to rats that had undergone one of two nerve injury surgeries: spared nerve injury to injure two of the three peripheral branches of the sciatic nerve (SNI, Decosterd et al., Pain, 87:149-158 (2000)) or chronic constriction injury of the sciatic nerve (CCI, Bennett et al., Pain, 33:87-107 (1988)). Paw withdrawal thresholds to mechanical stimulation using calibrated von Frey filaments were used as measurement of neuropathic pain-like behaviors.

Test [2] has as its system BH4 production in human peripheral blood mononuclear cells (PBMCs). In words: hPBMC assay, inhibition of BH4 production by LC-MS (anti-CD3/anti-CD28 stimulated). The format is cell-based. To be noted: PBMC, read-out: hPBMC IC50.
The target in test [3] is SNAP-hSPR (sepiapterin reductase, SPR) (Homo sapiens, UniProt P35270). In words: biochemical. The format is binding. To be noted: terbium labelled SNAP-hSPR / SSZ labelled SNAP-EGFP; read-out: hTR-FRET IC50.
Sequence of SNAP-hSPR (sepiapterin reductase, SPR) (P35270 whole entry): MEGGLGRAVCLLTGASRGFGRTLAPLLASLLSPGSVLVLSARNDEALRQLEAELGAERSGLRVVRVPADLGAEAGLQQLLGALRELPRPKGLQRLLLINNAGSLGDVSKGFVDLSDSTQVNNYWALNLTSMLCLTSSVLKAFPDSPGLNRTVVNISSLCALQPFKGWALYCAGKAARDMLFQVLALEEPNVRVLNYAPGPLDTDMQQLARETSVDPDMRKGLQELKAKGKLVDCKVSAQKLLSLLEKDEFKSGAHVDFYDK
Test [4] deals with neuropathic pain-like behaviors after spared nerve injury (SNI). In words: Behavioral pharmacology model: spared nerve injury (SNI), paw withdrawal threshold, von Frey filaments. Format: in vivo. To be noted: rat, oral gavage, mechanical endpoint, 4 hrs. The method, then:
as §1, §2

Test [5] has as its system BH4 levels in SK-N-BE (2) cells. In words: SKN-N-BE (2) cellular assay, BH4 levels by LC-MS. Format: cell-based. Particulars: Homo sapiens, SKNBE2, read-out: SK-N-BE(2) IC50, SK-N-BE (2) cells, BH4 levels by LC-MS.

For the molecule `Cc1c(C(=O)N2CCN(C3CC(F)(F)C3)CC2)cnn1-c1nn2cccc2c(=O)[nH]1` [Q-1169], the “Behavior Significant effect” value in test [1] (9.5 mpk QD 3 days) is on record as “yes”. Besides, the IC50 in test [2] is 0.077 µM; in test [3], 0.001 µM.

`Cc1c(C(=O)N2CCC(c3nc(C#N)co3)CC2)cnn1-c1nn2cccc2c(=O)[nH]1` [Q-1127]: the “Behavior Significant effect” value in test [4] (20 mpk QD 3 days) is listed as “yes”. For the same molecule, the 50% inhibitory concentration (IC50) was found to be 0.015 µM in test [2] and 0.001 µM in test [3].

In the case of `Cc1c(C(=O)N2CCN(C3CCC3(F)F)CC2)nnn1-c1nn2cccc2c(=O)[nH]1` (stereo not drawn) [Q-1204], the “Behavior Significant effect” value in test [4] (10 mpk QD 3 days) was “yes”. Besides, the IC50 amounted to 0.017 µM in test [2] and 0.001 µM in test [3].

With `Cc1c(C(=O)N2CC3CC(C2)N3C2CC2)cnn1-c1nn2cccc2c(=O)[nH]1` [Q-1195], the “Behavior Significant effect” value in test [4] (15 mpk QD 3 days) is on record as “yes”. The figures for the concentration for half-maximal inhibition (IC50) in test [2] and in test [3] were 0.047 µM and 0.002 µM, respectively.

`Cc1c(C(=O)N2CCN(C(C)(C)C)CC2)cnn1-c1nn2cccc2c(=O)[nH]1` [Q-0888]: the IC50 in test [5] came out at 0.4 µM; in test [2], 0.24 µM; in test [3] it was 0.005 µM.

Turning to `Cc1c(C(=O)N2C[C@@H]3C[C@H]2CN3Cc2ccccc2)cnn1-c1nn2cccc2c(=O)[nH]1` [Q-1033], the 50% inhibitory concentration (IC50) came out at 0.4 µM in test [5], 0.26 µM in test [2] and 0.008 µM in test [3].

On to `O=C(c1cnn(-c2nn3cccc3c(=O)[nH]2)c1)N1CCC(C(F)(F)F)CC1` [Q-0467, 2-{4-[4-(trifluoromethyl)piperidine-1-carbonyl]-1H-pyrazol-1-yl}-3H,4H-pyrrolo[2,1f][1,2,4]triazin-4-one], for which the IC50 in test [5] amounted to 0.082 µM; in test [2], 0.1 µM; in test [3], 0.002 µM.

Regarding `Cc1c(C(=O)N2CCN(C3CC(F)(F)C3)CC2)nnn1-c1nn2cccc2c(=O)[nH]1` [Q-1245], the “Behavior Significant effect” value in test [1] (9.5 mpk QD 3 days) was “yes”. Moreover, the 50% inhibitory concentration (IC50) turned out to be 0.026 µM in test [2] and 0.001 µM in test [3].

Take `Cc1c(C(=O)N2CCN(CC3CCC3)[C@H](C)C2)cnn1-c1nn2cccc2c(=O)[nH]1` [Q-1020]: the IC50 stood at 0.3 µM in test [5], 0.2 µM in test [2] and 0.002 µM in test [3].

With `Cc1c(C(=O)N2C3CCC2CC(O)(c2ccccc2)C3)cnn1-c1nn2cccc2c(=O)[nH]1` (stereo not drawn) [Q-0797], the half-inhibitory concentration (IC50) is 0.1 µM in test [5], 0.027 µM in test [2] and 0.001 µM in test [3].

Turning to `Cc1c(C(=O)N2CC3C(C2)C3(C)C)cnn1-c1nn2cccc2c(=O)[nH]1` (stereo not drawn) [Q-0927], the IC50 is 0.2 µM in test [5], 0.081 µM in test [2] and 0.001 µM in test [3].

As to `Cc1c(C(=O)N2CCC3(CC2)CC3)nnn1-c1nn2cccc2c(=O)[nH]1` [Q-1005], the figures for the concentration for half-maximal inhibition (IC50) in test [5], in test [2] and in test [3] were 0.3 µM, 0.1 µM and 0.001 µM, respectively.

In the case of `Cc1c(C(=O)N2C3CCC2CC(F)(F)C3)cnn1-c1nn2cccc2c(=O)[nH]1` [Q-0910], the IC50 turned out to be 0.5 µM in test [5], 0.074 µM in test [2] and 0.002 µM in test [3].

Take `Cc1c(C(=O)N2CCC3OCCCC3C2)cnn1-c1nn2cccc2c(=O)[nH]1` (stereo not drawn) [Q-0917]: the half-inhibitory concentration (IC50) in test [5] was 0.7 µM; in test [2], 0.1 µM; in test [3], 0.003 µM.

For `Cc1c(C(=O)N2CCN(C3CC3)CC2)cnn1-c1nn2cccc2c(=O)[nH]1` [Q-0764], the IC50 is 0.3 µM in test [5], 0.1 µM in test [2] and 0.002 µM in test [3].

In the case of `Cc1c(C(=O)N2CCN3CC(F)(F)C[C@H]3C2)cnn1-c1nn2cccc2c(=O)[nH]1` [Q-0906], the IC50 stood at 0.8 µM in test [5], 0.19 µM in test [2] and 0.003 µM in test [3].

Consider `Cc1c(C(=O)N2CCC2c2ccc(F)nc2)cnn1-c1nn2cccc2c(=O)[nH]1` (stereo not drawn) [Q-1242], for which the “Behavior Significant effect” value in test [4] (10 mpk QD 3 days) is on record as “yes”. For the same molecule, the results for the half-maximal inhibitory concentration (IC50) in test [2] and in test [3] were 0.032 µM and 0.005 µM, respectively.

In the case of `Cc1c(C(=O)N2CC3CC(F)(F)C3C2)cnn1-c1nn2cccc2c(=O)[nH]1` (stereo not drawn) [Q-0804], the 50% inhibitory concentration (IC50) in test [5] amounted to 0.3 µM; in test [2], 0.094 µM; in test [3] it was 0.001 µM.

On to `C/C=C(/C1CCN(C(=O)c2cnn(-c3nn4cccc4c(=O)[nH]3)c2C)CC1)C(F)(F)F` [Q-1065], for which the IC50 in test [5] stood at 0.058 µM; in test [2], 0.074 µM; in test [3], 0.001 µM.

Turning to `COC1(C)CCN(C(=O)c2cnn(-c3nn4cccc4c(=O)[nH]3)c2C)CC1` [Q-0973], the half-maximal inhibitory concentration (IC50) in test [5] turned out to be 0.7 µM; in test [2], 0.08 µM; in test [3], 0.001 µM.

Take `Cc1c(C(=O)N2CCc3ccccc3C2)cnn1-c1nc2ccsc2c(=O)[nH]1` [Q-0354]: the 50% inhibitory concentration (IC50) in test [5] worked out at 0.1 µM; in test [2] it was 0.38 µM; in test [3], 0.002 µM.

With `Cc1c(C(=O)N2CC(N(C)C(=O)OC(C)(C)C)C2)cnn1-c1nn2cccc2c(=O)[nH]1` [Q-0850], the IC50 in test [5] turned out to be 0.3 µM; in test [2], 0.074 µM; in test [3], 0.001 µM.

Consider `Cc1c(C(=O)N2CC=C(C3(C#N)CC3)CC2)cnn1-c1nn2cccc2c(=O)[nH]1` [Q-1034], for which the IC50 worked out at 0.2 µM in test [5], 0.16 µM in test [2] and 0.002 µM in test [3].

As for `Cc1c(C(=O)N2CCC(O)(C3CC3)CC2)cnn1-c1nn2cccc2c(=O)[nH]1` [Q-0815], the results for the IC50 in test [5], in test [2] and in test [3] were 0.1 µM, 0.072 µM and 0.001 µM, respectively.

`Cc1c(C(=O)N2CCC(C(F)(F)F)CC2C)cnn1-c1nc2c(c(=O)[nH]1)CCC2` (stereo not drawn) [Q-0423]: the half-maximal inhibitory concentration (IC50) was 0.1 µM in test [5], 0.41 µM in test [2] and 0.005 µM in test [3].

On to `Cc1c(C(=O)N2CCC(C(O)C(F)(F)F)CC2)cnn1-c1nc2c(c(=O)[nH]1)CCC2` (stereo not drawn) [Q-1067], for which the concentration for half-maximal inhibition (IC50) in test [5] was determined as 0.1 µM; in test [2], 0.16 µM; in test [3], 0.002 µM.

Take `Cc1c(C(=O)N2CCN(C(C)C(F)(F)F)CC2)cnn1-c1nn2cccc2c(=O)[nH]1` (stereo not drawn) [Q-0956]: the figures for the half-inhibitory concentration (IC50) in test [5], in test [2] and in test [3] were 0.086 µM, 0.014 µM and 0.001 µM, respectively.

With `Cc1c(C(=O)N2CCCN(CC(F)(F)F)CC2)cnn1-c1nn2cccc2c(=O)[nH]1` [Q-0992], the IC50 in test [5] came to 0.8 µM; in test [2], 0.098 µM; in test [3] it was 0.003 µM.

Regarding `CCC1(C#N)CCN(C(=O)c2cnn(-c3nn4cccc4c(=O)[nH]3)c2C)CC1` [Q-0586], the results for the 50% inhibitory concentration (IC50) in test [5], in test [2] and in test [3] were 0.2 µM, 0.13 µM and 0.002 µM, respectively.

For `Cc1c(C(=O)N2CC(c3ccnc(F)c3)C2)cnn1-c1nn2cccc2c(=O)[nH]1` [Q-1133], the “Behavior Significant effect” value in test [1] (10 mpk QD 3 days) is reported as “yes”. In addition, the IC50 in test [2] stood at 0.022 µM; in test [3] it was 0.002 µM.

For `Cc1c(C(=O)N2CCC(F)(C#N)C2)cnn1-c1nn2cccc2c(=O)[nH]1` (stereo not drawn) [Q-1059], the 50% inhibitory concentration (IC50) in test [5] is 1.3 µM; in test [2] it was 2.1 µM; in test [3], 0.002 µM.

The record behind these values is patent US9963462B2 (priority 2015, dated 2018).
